This is an account of results in patent US7595313B2, “Nitric oxide donating diuretic compounds, compositions and methods of use” (NicOx, S.A., priority 2005, dated 2009).

A word on the melting point: it is the temperature of the solid-liquid transition.

One series concerns Male Wistar rats. As to the kind of experiment: Determination of the diuresis (urine volume over 6 hours after oral dosing). It is filed as in vivo, rat. The procedure: Procedures were approved by the Institutional Animal Care and Use Committee of NitroMed, Inc. Male Wistar rats (180-200 g) were purchased from Charles River Laboratories (Kingston, N.Y. or Raleigh, N.C.) and allowed to acclimate in the facility for a period of at least 72 h. Rats were randomly housed 2-3 per cage in a light-controlled room with a 12 hour light/dark cycle and allowed ad libitum access to food and water.
Prior to the experiment, each rat was placed in a metabolic cage and allowed to acclimate for a period of 24-48 hours with food and water ad libitum. During this acclimation period, rats received mash food instead of pellet food to prevent contamination of the urine samples. All rats were fasted for 18 hours prior to experimentation. In addition, water was removed 90 minutes prior to oral dosing with test compound or vehicle.
The test compounds were prepared immediately prior to dosing in 0.5% Methocel (F4M Premium Hydroxypropyl Methylcellulose, lot # PF12012N12; Dow Chemical Company, USA) and homogenized with a glass/Teflon pestle motorized homogenizer. Gently vortexed test compounds were administered intragastrically (p.o.; 30 mg/kg or 3 mg/kg) at a dose volume of 3 ml per rat using an 18 gauge gavage needle. Urine volume (ml) was monitored and urine was collected for subsequent electrolyte analysis over a 6 hours period. […] Data are expressed as mean ±SEM; n=6 or 7.

Setting [1] is: p.o. 30 mg/kg in 0.5% Methocel, male Wistar rats, 6 hours, mean ± SEM, n=6 or 7.

`NS(=O)(=O)c1cc2c(cc1C(F)(F)F)NC(CCCCCO[N+](=O)[O-])NS2(=O)=O` (centres unmarked) [Example 2, 2H-1,2,4-Benzothiadiazine-7-sulfonamide, 3,4-dihydro-3-[5-(nitrooxy)pentyl]-6-(trifluoromethyl)-, 1,1-dioxide]: the melting point was 171 to 189 °C. For the same molecule, the “Urine collected in 6 hours (mL) (30 mg/kg)” value (“Urine collected in 6 hours” for short) with Male Wistar rats (setting [1]) was 5.7 ± 0.7 mL.

Take `NS(=O)(=O)c1cc2c(cc1C(F)(F)F)NC(CCCO[N+](=O)[O-])NS2(=O)=O` (centres unmarked) [Example 3d, 2H-1,2,4-Benzothiadiazine-7-sulfonamide, 3,4-dihydro-3-[3-(nitrooxy)propyl]-6-(trifluoromethyl)-, 1,1-dioxide]: the melting point is 165 °C (dec.). The “Urine collected in 6 hours” value in the series with Male Wistar rats (setting [1]) turned out to be 5.3 ± 0.8 mL.

The molecule `NS(=O)(=O)c1cc2c(cc1Cl)N=C(NC(=O)CCCCO[N+](=O)[O-])NS2(=O)=O` [Example 4c, Pentanamide, N-[7-(aminosulfonyl)-6-chloro-1,1-dioxido-2H-1,2,4-benzothiadiazin-3-yl]-5-(nitrooxy)-] yielded a melting point of 222 to 225 °C. Moreover, the “Urine collected in 6 hours” value in the series with Male Wistar rats (setting [1]) is given as 3.8 ± 0.7 mL.

As for `NS(=O)(=O)c1cc2c(cc1Cl)NC(CCC(CO[N+](=O)[O-])O[N+](=O)[O-])NS2(=O)=O` (centres unmarked) [Example 6b, 2H-1,2,4-Benzothiadiazine-7-sulfonamide, 3-[3,4-bis(nitrooxy)butyl]-6-chloro-3,4-dihydro-, 1,1-dioxide], the melting point was 153 to 155 °C. Also, the “Urine collected in 6 hours” value in the series with Male Wistar rats (rat, in vivo, po) came to 6.8 ± 0.5 mL.

In the case of `NS(=O)(=O)c1cc2c(cc1C(F)(F)F)NC(CCC(CO[N+](=O)[O-])O[N+](=O)[O-])NS2(=O)=O` (centres unmarked) [Example 7, 2H-1,2,4-benzothiadiazine-7-sulfonamide, 3-[3,4-bis(nitrooxy)butyl]-3,4-dihydro-6-(trifluoromethyl)-, 1,1-dioxide], the melting point is 157 to 160 °C (dec.). In the series with Male Wistar rats (rat, in vivo, po), the “Urine collected in 6 hours” value is on record as 5.7 ± 0.4 mL.

Take `NS(=O)(=O)c1cc2c(cc1Cl)NC(CCCO[N+](=O)[O-])NS2(=O)=O` (centres unmarked) [Example 8, 2H-1,2,4-Benzothiadiazine-7-sulfonamide, 6-chloro-3,4-dihydro-3-[3-(nitrooxy)propyl]-, 1,1-dioxide]: the melting point was in the range of 178 to 181 °C. For the same molecule, the “Urine collected in 6 hours” value with Male Wistar rats (setting [1]) amounted to 6.2 ± 0.7 mL.

As to `Cc1c(C2Nc3cc(Cl)c(S(N)(=O)=O)cc3S(=O)(=O)N2)no[n+]1[O-]` (centres unmarked) [Example 9b, 2H-1,2,4-Benzothiadiazine-7-sulfonamide, 6-chloro-3,4-dihydro-3-(4-methyl-5-oxido-1,2,5-oxadiazol-3-yl)-, 1,1-dioxide], the melting point was 242 to 243 °C (dec.). In addition, the “Urine collected in 6 hours” value in the series on Male Wistar rats (setting [1]) is recorded as 6.7 ± 0.8 mL.

Consider `NS(=O)(=O)c1cc2c(cc1Cl)NC(CCCC(=O)NC[C@H](CO[N+](=O)[O-])O[N+](=O)[O-])=NS2(=O)=O` [Example 11, 4H-1,2,4-Benzothiadiazine-3-butanamide, 7-(aminosulfonyl)-N-[(2R)-2,3-bis(nitrooxy)propyl]-6-chloro-, 1,1-dioxide], for which the melting point is above 220 °C. Further, the “Urine collected in 6 hours” value in the series with Male Wistar rats (rat, in vivo, po) came to 3.7 ± 0.3 mL.

Turning to `NS(=O)(=O)c1cc2c(cc1C(F)(F)F)NC1(CCN(C(=O)CCCCO[N+](=O)[O-])CC1)NS2(=O)=O` [Example 12c, Spiro[2H-1,2,4-benzothiadiazine-3(4H), 4′-piperidine]-7-sulfonamide, 1′-[5-(nitrooxy)-1-oxopentyl]-6-(trifluoromethyl)-, 1,1-dioxide], the melting point is 178 °C (dec.).

Turning to `NS(=O)(=O)c1cc2c(cc1Cl)NC(CCC(=O)NCCOCCO[N+](=O)[O-])=NS2(=O)=O` [Example 13, 4H-1,2,4-Benzothiadiazine-3-propanamide, 7-(aminosulfonyl)-6-chloro-N-[2-[2-(nitrooxy)ethoxy]ethyl]-, 1,1-dioxide], the melting point lay within 175 to 178 °C. Further, the “Urine collected in 6 hours” value with Male Wistar rats (setting [1]) came out at 2.2 ± 0.5 mL.

In the case of `NS(=O)(=O)c1cc2c(cc1Cl)NC(CCCC(=O)NCCO[N+](=O)[O-])=NS2(=O)=O` [Example 14, 4H-1,2,4-Benzothiadiazine-3-butanamide, 7-(aminosulfonyl)-6-chloro-N-[2-(nitrooxy)ethyl]-, 1,1-dioxide], the melting point was in the range of 168 to 170 °C. Also, in the series with Male Wistar rats (setting [1]), the “Urine collected in 6 hours” value was determined as 4.0 ± 0.4 mL.

As for `CC(CO[N+](=O)[O-])(CO[N+](=O)[O-])C(=O)N1CCC2(CC1)Nc1cc(C(F)(F)F)c(S(N)(=O)=O)cc1S(=O)(=O)N2` [Example 16c, Spiro[2H-1,2,4-benzothiadiazine-3(4H), 4′-piperidine]-7-sulfonamide, 1′-[2-methyl-3-(nitrooxy)-2-[(nitrooxy)methyl]-1-oxopropyl]-6-(trifluoromethyl)-, 1,1-dioxide], the melting point is > 140 °C (dec.). For the same molecule, the “Urine collected in 6 hours” value in the series on Male Wistar rats (rat, in vivo, po) was 4.3 ± 0.3 mL.

With `NS(=O)(=O)c1cc2c(cc1Cl)NC1(CCN(C(=O)CCCCO[N+](=O)[O-])CC1)NS2(=O)=O` [Example 18b, Spiro[2H-1,2,4-benzothiadiazine-3(4H), 4′-piperidine]-7-sulfonamide, 6-chloro-1′-[5-(nitrooxy)-1-oxopentyl]-, 1,1-dioxide], the melting point is 155 °C (dec.).

For `CC(C)(CO[N+](=O)[O-])C(=O)N1CCC2(CC1)Nc1cc(C(F)(F)F)c(S(N)(=O)=O)cc1S(=O)(=O)N2` [Example 19b, Spiro[2H-1,2,4-benzothiadiazine-3(4H), 4′-piperidine]-7-sulfonamide, 1′-[2,2-dimethyl-3-(nitrooxy)-1-oxopropyl]-6-(trifluoromethyl)-, 1,1-dioxide], the melting point is 152 to 156 °C (dec.). Besides, the “Urine collected in 6 hours” value in the series with Male Wistar rats (setting [1]) is on record as 2.5 ± 0.4 mL.

The molecule `NS(=O)(=O)c1cc2c(cc1Cl)NC(CCCCCO[N+](=O)[O-])=NS2(=O)=O` [Example 20c, 4H-1,2,4-Benzothiadiazine-7-sulfonamide, 6-chloro-3-[5-(nitrooxy)pentyl]-, 1,1-dioxide] came in with a melting point of 170 to 172 °C. The “Urine collected in 6 hours” value in the series with Male Wistar rats (setting [1]) stood at 3.0 ± 0.9 mL.

With `NS(=O)(=O)c1cc2c(cc1C(F)(F)F)NC(CCCCCO)NS2(=O)=O` (centres unmarked) [Example 25b, 2H-1,2,4-Benzothiadiazine-7-sulfonamide, 3,4-dihydro-3-(5-hydroxypentyl)-6-(trifluoromethyl)-, 1,1-dioxide], the melting point came to 97 °C.

On to `NS(=O)(=O)c1cc2c(cc1Cl)NC(Cc1ccc(CO[N+](=O)[O-])cc1)=NS2(=O)=O` [Example 29d, 4H-1,2,4-Benzothiadiazine-7-sulfonamide, 6-chloro-3-[[4-[(nitrooxy)methyl]phenyl]methyl]-, 1,1-dioxide], for which the melting point is above 260 °C.

In the case of `NS(=O)(=O)c1cc2c(cc1Cl)NCN(CCCO[N+](=O)[O-])S2(=O)=O` [Example 35b, 2H-1,2,4-Benzothiadiazine-7-sulfonamide, 6-chloro-3,4-dihydro-2-[3-(nitrooxy)propyl]-, 1,1-dioxide], the melting point was 148 to 151 °C (dec.).

On to `NS(=O)(=O)c1cc2c(cc1Cl)NCN(CCCCCO)S2(=O)=O` [Example 60, 2H-1,2,4-Benzothiadiazine-7-sulfonamide, 6-chloro-3,4-dihydro-2-(5-hydroxypentyl)-, 1,1-dioxide], for which the melting point was 177 to 179 °C.

Take `NS(=O)(=O)c1cc2c(cc1C(F)(F)F)NC(CCCCO[N+](=O)[O-])NS2(=O)=O` (centres unmarked) [Example 61b, 2H-1,2,4-Benzothiadiazine-7-sulfonamide, 3,4-dihydro-3-[4-(nitrooxy)butyl]-6-(trifluoromethyl)-, 1,1-dioxide]: the melting point lay in the range of 171 to 177 °C.

Regarding `NS(=O)(=O)c1cc2c(cc1Cl)NCN(CCCCCCO)S2(=O)=O` [Example 66, 2H-1,2,4-Benzothiadiazine-7-sulfonamide, 6-chloro-3,4-dihydro-2-(6-hydroxyhexyl)-, 1,1-dioxide], the melting point lay in the range of 176 to 179 °C.

On to `NS(=O)(=O)c1cc2c(cc1Cl)NCN(Cc1cc(CO[N+](=O)[O-])cc(OCCCCBr)c1)S2(=O)=O` [Example 68d, 2H-1,2,4-Benzothiadiazine-7-sulfonamide, 2-[[3-(4-bromobutoxy)-5[(nitrooxy)methyl]phenyl]methyl]-6-chloro-3,4-dihydro-, 1,1-dioxide], for which the melting point amounted to 80 °C.

In the case of `NS(=O)(=O)c1cc2c(cc1Cl)NC(CCO[N+](=O)[O-])NS2(=O)=O` (centres unmarked) [Example 74b, 2H-1,2,4-Benzothiadiazine-7-sulfonamide, 6-chloro-3,4-dihydro-3-[2-(nitrooxy)ethyl]-, 1,1-dioxide], the melting point fell in the range of 113 to 117 °C.

For the molecule `NS(=O)(=O)c1cc2c(cc1Cl)NC(CCc1cc(CO)cc(CO)c1)NS2(=O)=O` (centres unmarked) [Example 79d, 2H-1,2,4-Benzothiadiazine-7-sulfonamide, 3-[2-[3,5-bis(hydroxymethyl)phenyl]ethyl]-6-chloro-3,4-dihydro-, 1,1-dioxide], the melting point was found to be 218 °C.

`NS(=O)(=O)c1cc2c(cc1Cl)NCN(CC1CO1)S2(=O)=O` (centres unmarked) [Example 81, 2H-1,2,4-benzothiadiazine-7-sulfonamide, 6-chloro-3,4-dihydro-2-(oxiranylmethyl)-, 1,1-dioxide] returned a melting point of 192 to 197 °C.
